# Measurements reported in patent US5622966A, “7-substituted quinolones and naphthyridones as antibacterial agents” (Warner-Lambert Company, priority 1995, dated 1997).
# Assays:
# Experiment in all cases: In vitro antibacterial activity, microtitration dilution method (MIC)
# Format in all cases: cell-based
# E. coli Vogel = settings: Escherichia coli, read-out: Minimal Inhibitory Concentration MIC
# Description: (§1) The compounds of the invention display antibacterial activity when tested by the microtitration dilution method as described in Heifetz, et al, Antimicr. Agents & Chemoth. 6:124 (1974), which is incorporated herein by reference.
# (§2) By use of the above reference method, the following minimum inhibitory concentration value (MICs in μg/mL) shown in Table I were obtained for representative compounds of the invention.
# Kleb. pneu. = settings: read-out: Minimal Inhibitory Concentration MIC
# Description: as §1, §2
# Streptococcus pneum. = settings: read-out: Minimal Inhibitory Concentration MIC
# Description: as §1, §2
# S. aureus S = settings: Staphylococcus aureus, read-out: Minimal Inhibitory Concentration MIC
# Description: as §1, §2
# S. aureus R = settings: Staphylococcus aureus, read-out: Minimal Inhibitory Concentration MIC
# Description: as §1, §2
# Pseu. aeru. = settings: read-out: Minimal Inhibitory Concentration MIC
# Description: as §1, §2
# Streptococcus pyog. = settings: read-out: Minimal Inhibitory Concentration MIC
# Description: as §1, §2
# Enter. cloac. = settings: read-out: Minimal Inhibitory Concentration MIC
# Description: as §1, §2
# Streptococcus faec. = settings: read-out: Minimal Inhibitory Concentration MIC
# Description: as §1, §2
# Prot. rettg. = settings: read-out: Minimal Inhibitory Concentration MIC
# Description: as §1, §2
smiles,measurement,setting,value
"NCc1ccccc1C1CCN(c2nc3c(cc2F)c(=O)c(C(=O)O)cn3C2CC2)C1 (stereo not shown) [Example 1, 7-[3-[2-(Aminomethyl)phenyl]-1-pyrrolidinyl]-1-cyclopropyl-6-fluoro-1,4-dihydro-4-oxo-1,8-naphthyridine-3-carboxylic acid]",MIC,E. coli Vogel,0.1 µg/mL
same,MIC,Kleb. pneu.,0.2 µg/mL
same,MIC,Streptococcus pneum.,0.025 µg/mL
same,MIC,S. aureus S,0.013 µg/mL
same,MIC,S. aureus R,0.05 µg/mL
same,MIC,Pseu. aeru.,1.6 µg/mL
same,MIC,Streptococcus pyog.,0.025 µg/mL
same,MIC,Enter. cloac.,0.1 µg/mL
same,MIC,Streptococcus faec.,0.05 µg/mL
same,MIC,Prot. rettg.,0.4 µg/mL
"NCc1cccc(C2CCN(c3nc4c(cc3F)c(=O)c(C(=O)O)cn4C3CC3)C2)c1 (stereo not shown) [Example 6, 7-[3-[3-(Aminomethyl)phenyl]-1-pyrrolidinyl]-1-cyclopropyl-6-fluoro-1,4-dihydro-4-oxo-1,8-naphthyridine-3-carboxylic acid]",MIC,E. coli Vogel,0.05 µg/mL
same,MIC,Kleb. pneu.,0.05 µg/mL
same,MIC,Streptococcus pneum.,0.006 µg/mL
same,MIC,S. aureus S,0.006 µg/mL
same,MIC,S. aureus R,0.013 µg/mL
same,MIC,Pseu. aeru.,0.8 µg/mL
same,MIC,Streptococcus pyog.,0.006 µg/mL
same,MIC,Enter. cloac.,0.05 µg/mL
same,MIC,Streptococcus faec.,0.025 µg/mL
same,MIC,Prot. rettg.,0.1 µg/mL
"NCc1cccc(C2CCN(c3cc4c(cc3F)c(=O)c(C(=O)O)cn4C3CC3)C2)c1 (stereo not shown) [Example 7, 7-[3-[3-(Aminomethyl)phenyl]-1-pyrrolidinyl]-1-cyclopropyl-6-fluoro-1,4-dihydro-4-oxo-3-quinolinecarboxylic acid]",MIC,E. coli Vogel,0.05 µg/mL
same,MIC,Kleb. pneu.,0.1 µg/mL
same,MIC,Streptococcus pneum.,≤ 0.003 µg/mL
same,MIC,S. aureus S,0.006 µg/mL
same,MIC,S. aureus R,0.025 µg/mL
same,MIC,Pseu. aeru.,0.8 µg/mL
same,MIC,Streptococcus pyog.,≤ 0.003 µg/mL
same,MIC,Enter. cloac.,0.05 µg/mL
same,MIC,Streptococcus faec.,0.013 µg/mL
same,MIC,Prot. rettg.,0.1 µg/mL
"NCc1cccc(C2CCN(c3c(F)c(N)c4c(=O)c(C(=O)O)cn(C5CC5)c4c3F)C2)c1 (stereo not shown) [Example 8, 5-Amino-7-[3-[3-(aminomethyl)phenyl]-1-pyrrolidinyl]-1-cyclopropyl-6,8-difluoro-1,4-dihydro-4-oxo-3-quinolinecarboxylic acid]",MIC,E. coli Vogel,0.05 µg/mL
same,MIC,Kleb. pneu.,0.1 µg/mL
same,MIC,Streptococcus pneum.,0.006 µg/mL
same,MIC,S. aureus S,≤ 0.003 µg/mL
same,MIC,S. aureus R,0.013 µg/mL
same,MIC,Pseu. aeru.,0.8 µg/mL
same,MIC,Streptococcus pyog.,0.013 µg/mL
same,MIC,Enter. cloac.,0.05 µg/mL
same,MIC,Streptococcus faec.,0.013 µg/mL
same,MIC,Prot. rettg.,0.2 µg/mL
"NCc1ccc(C2CCN(c3c(F)c(N)c4c(=O)c(C(=O)O)cn(C5CC5)c4c3F)C2)cc1 (stereo not shown) [Example 11, 5-Amino-7-[3-[4-(aminomethyl)phenyl]-1-pyrrolidinyl]-1-cyclopropyl-6,8-difluoro-1,4-dihydro-4-oxo-3-quinolinecarboxylic acid]",MIC,E. coli Vogel,0.1 µg/mL
same,MIC,Kleb. pneu.,0.2 µg/mL
same,MIC,Streptococcus pneum.,0.013 µg/mL
same,MIC,S. aureus S,≤ 0.003 µg/mL
same,MIC,S. aureus R,0.013 µg/mL
same,MIC,Pseu. aeru.,0.8 µg/mL
same,MIC,Streptococcus pyog.,0.013 µg/mL
same,MIC,Enter. cloac.,0.1 µg/mL
same,MIC,Streptococcus faec.,0.013 µg/mL
same,MIC,Prot. rettg.,0.2 µg/mL
"CNCc1cccc(C2CCN(c3c(F)c(N)c4c(=O)c(C(=O)O)cn(C5CC5)c4c3F)C2)c1 (stereo not shown) [Example 13, 5-Amino-1-cyclopropyl-6,8-difluoro-1,4-dihydro-7-[3-[3-[(methylamino)methyl]phenyl]-1-pyrrolidinyl]-4-oxo-3-quinolinecarboxvlic acid]",MIC,E. coli Vogel,0.2 µg/mL
same,MIC,Kleb. pneu.,0.4 µg/mL
same,MIC,Streptococcus pneum.,0.05 µg/mL
same,MIC,S. aureus S,0.013 µg/mL
same,MIC,S. aureus R,0.05 µg/mL
same,MIC,Pseu. aeru.,1.6 µg/mL
same,MIC,Streptococcus pyog.,0.05 µg/mL
same,MIC,Enter. cloac.,0.2 µg/mL
same,MIC,Streptococcus faec.,0.05 µg/mL
same,MIC,Prot. rettg.,0.8 µg/mL
"CNCc1ccc(C2CCN(c3cc4c(cc3F)c(=O)c(C(=O)O)cn4C3CC3)C2)cc1 (stereo not shown) [Example 14, 1-Cyclopropyl-6-fluoro-1,4-dihydro-7-[3-[4-[(methylamino)methyl]phenyl]-1-pyrrolidinyl]-4-oxo-3-quinolinecarboxylic acid]",MIC,E. coli Vogel,0.2 µg/mL
same,MIC,Kleb. pneu.,0.4 µg/mL
same,MIC,Streptococcus pneum.,0.013 µg/mL
same,MIC,S. aureus S,0.006 µg/mL
same,MIC,S. aureus R,0.013 µg/mL
same,MIC,Pseu. aeru.,1.6 µg/mL
same,MIC,Streptococcus pyog.,0.013 µg/mL
same,MIC,Enter. cloac.,0.2 µg/mL
same,MIC,Streptococcus faec.,0.025 µg/mL
same,MIC,Prot. rettg.,0.4 µg/mL
"CNCc1ccc(C2CCN(c3c(F)c(N)c4c(=O)c(C(=O)O)cn(C5CC5)c4c3F)C2)cc1 (stereo not shown) [Example 15, 5-Amino-1-cyclopropyl-6,8-difluoro-1,4-dihydro-7-[3-[4-[(methylamino)methyl]phenyl]-1-pyrrolidinyl]-4-oxo-3-quinolinecarboxylic acid]",MIC,E. coli Vogel,0.2 µg/mL
same,MIC,Kleb. pneu.,0.4 µg/mL
same,MIC,Streptococcus pneum.,0.013 µg/mL
same,MIC,S. aureus S,0.006 µg/mL
same,MIC,S. aureus R,0.013 µg/mL
same,MIC,Pseu. aeru.,1.6 µg/mL
same,MIC,Streptococcus pyog.,0.013 µg/mL
same,MIC,Enter. cloac.,0.2 µg/mL
same,MIC,Streptococcus faec.,0.025 µg/mL
same,MIC,Prot. rettg.,0.4 µg/mL
"O=C(O)c1cn(C2CC2)c2cc(N3CCC(c4ccccn4)C3)c(F)cc2c1=O (stereo not shown) [Example 17, 1-Cyclopropyl-6-fluoro-1,4-dihydro-4-oxo-7-[3-(2-pyridinyl)-1-pyrrolidinyl]-3-quinolinecarboxylic acid]",MIC,E. coli Vogel,0.1 µg/mL
same,MIC,Kleb. pneu.,0.2 µg/mL
same,MIC,Streptococcus pneum.,0.05 µg/mL
same,MIC,S. aureus S,≤ 0.003 µg/mL
same,MIC,S. aureus R,0.006 µg/mL
same,MIC,Pseu. aeru.,0.8 µg/mL
same,MIC,Streptococcus pyog.,0.05 µg/mL
same,MIC,Enter. cloac.,0.1 µg/mL
same,MIC,Streptococcus faec.,0.05 µg/mL
same,MIC,Prot. rettg.,0.2 µg/mL
"O=C(O)c1cn(C2CC2)c2cc(N3CCC(c4cccnc4)C3)c(F)cc2c1=O (stereo not shown) [Example 21, 1-Cyclopropyl-6-fluoro-1,4-dihydro-4-oxo-7-[3-(3-pyridinyl)-1-pyrrolidinyl]-3-quinolinecarboxylic acid]",MIC,E. coli Vogel,0.1 µg/mL
same,MIC,Kleb. pneu.,0.2 µg/mL
same,MIC,Streptococcus pneum.,0.025 µg/mL
same,MIC,S. aureus S,≤ 0.003 µg/mL
same,MIC,S. aureus R,0.006 µg/mL
same,MIC,Pseu. aeru.,0.8 µg/mL
same,MIC,Streptococcus pyog.,0.025 µg/mL
same,MIC,Enter. cloac.,0.1 µg/mL
same,MIC,Streptococcus faec.,0.025 µg/mL
same,MIC,Prot. rettg.,0.2 µg/mL
"Nc1c(F)c(N2CCC(c3cccnc3)C2)c(F)c2c1c(=O)c(C(=O)O)cn2C1CC1 (stereo not shown) [Example 22, 5-Amino-1-cyclopropyl-6,8-difluoro-1,4-dihydro-4-oxo-7-[3-(3-pyridinyl)-1-pyrrolidinyl]-3-quinoline-carboxylic acid]",MIC,E. coli Vogel,0.1 µg/mL
same,MIC,Kleb. pneu.,0.2 µg/mL
same,MIC,Streptococcus pneum.,0.025 µg/mL
same,MIC,S. aureus S,≤ 0.003 µg/mL
same,MIC,S. aureus R,0.006 µg/mL
same,MIC,Pseu. aeru.,1.6 µg/mL
same,MIC,Streptococcus pyog.,0.025 µg/mL
same,MIC,Enter. cloac.,0.1 µg/mL
same,MIC,Streptococcus faec.,0.05 µg/mL
same,MIC,Prot. rettg.,0.2 µg/mL
"Nc1c(F)c(N2CCC(c3ccncc3)C2)c(F)c2c1c(=O)c(C(=O)O)cn2C1CC1 (stereo not shown) [Example 25, 5-Amino-1-cyclopropyl-6,8-difluoro-1,4-dihydro-4-oxo-7-[3-(4-pyridinyl)-1-pyrrolidinyl]-3-quinoline-carboxylic acid]",MIC,E. coli Vogel,0.2 µg/mL
same,MIC,Kleb. pneu.,0.4 µg/mL
same,MIC,Streptococcus pneum.,0.05 µg/mL
same,MIC,S. aureus S,≤ 0.003 µg/mL
same,MIC,S. aureus R,0.006 µg/mL
same,MIC,Pseu. aeru.,3.1 µg/mL
same,MIC,Streptococcus pyog.,0.05 µg/mL
same,MIC,Enter. cloac.,0.2 µg/mL
same,MIC,Streptococcus faec.,0.05 µg/mL
same,MIC,Prot. rettg.,0.4 µg/mL
"NCc1cccnc1C1CCN(c2c(F)c(N)c3c(=O)c(C(=O)O)cn(C4CC4)c3c2F)C1 (stereo not shown) [Example 29, 5-Amino-7-[3-[3-(aminomethyl)-2-pyridinyl]-1-pyrrolidinyl]-1-cyclopropyl-6,8-difluoro-1,4-dihydro-4-oxo-3-quinolinecarboxylic acid]",MIC,E. coli Vogel,0.05 µg/mL
same,MIC,Kleb. pneu.,0.1 µg/mL
same,MIC,Streptococcus pneum.,0.025 µg/mL
same,MIC,S. aureus S,0.013 µg/mL
same,MIC,S. aureus R,0.025 µg/mL
same,MIC,Pseu. aeru.,1.6 µg/mL
same,MIC,Streptococcus pyog.,0.025 µg/mL
same,MIC,Enter. cloac.,0.05 µg/mL
same,MIC,Streptococcus faec.,0.025 µg/mL
same,MIC,Prot. rettg.,0.2 µg/mL
